According to ChEMBL document CHEMBL1201862, “PubChem BioAssay data set” (2004):
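Assay format: 96-well plates, 48-hour exposure. The concentration for 50% growth inhibition is given as GI50.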 The source made the active and inactive calls. Rule as the data show it: active = GI50 up to about 1.1 µM and inactive = higher.

Legend:
Assay in all cases: NCI tumour cell line growth inhibition, 48 h
BT-549 = test system: BT-549
COLO 205 = test system: COLO 205
SW-620 = test system: SW-620
NCI-H460 = test system: NCI-H460
NCI-H23 = test system: NCI-H23
RPMI-8226 = test system: RPMI-8226
SK-OV-3 = test system: SK-OV-3
HCC 2998 = test system: HCC 2998
UO-31 = test system: UO-31
HOP-92 = test system: HOP-92
NCI-H226 = test system: NCI-H226
LOX IMVI = test system: LOX IMVI
OVCAR-4 = test system: OVCAR-4
MDA-MB-435 = test system: MDA-MB-435
U-251 = test system: U-251
CAKI-1 = test system: CAKI-1
NCI/ADR-RES = test system: NCI/ADR-RES
Malme-3M = test system: Malme-3M

SMILES | GI50 (BT-549) | GI50 (COLO 205) | GI50 (SW-620) | GI50 (NCI-H460) | GI50 (NCI-H23) | GI50 (RPMI-8226) | GI50 (SK-OV-3) | GI50 (HCC 2998) | GI50 (UO-31) | GI50 (HOP-92) | GI50 (NCI-H226) | GI50 (LOX IMVI) | GI50 (OVCAR-4) | GI50 (MDA-MB-435) | GI50 (U-251) | GI50 (CAKI-1) | GI50 (NCI/ADR-RES) | GI50 (Malme-3M)
CN(C)/C=N/S(=O)(=O)c1nn2c(C=O)c(-c3ccc([N+](=O)[O-])cc3)nc2s1 | 3.79 µM (inactive) | 3.18 µM (inactive) | 2.52 µM (inactive) | 13.6 µM (inactive) | 12 µM (inactive) | 2.39 µM (inactive) | 53.7 µM (inactive) | 17.4 µM (inactive) | 2.61 µM (inactive) | 12.6 µM (inactive) | 19.6 µM (inactive) | 2.93 µM (inactive) | 11.4 µM (inactive) | 6.3 µM (inactive) | 8.69 µM (inactive) | 0.627 µM (active) | 8.85 µM (inactive) | 2.23 µM (inactive)
C=CC(=O)C#Cc1cnc(OC)nc1OC | 12.3 µM (inactive) | 3.83 µM (inactive) | 4.95 µM (inactive) | 24.6 µM (inactive) | 17.5 µM (inactive) | 1.6 µM (inactive) | > 100 µM (inactive) | 19 µM (inactive) | 16.9 µM (inactive) | 1.39 µM (inactive) | > 48.5 µM (inactive) | 5.46 µM (inactive) | 20.8 µM (inactive) | 16.6 µM (inactive) | 13.9 µM (inactive) | 7.29 µM (inactive) | 31.3 µM (inactive) | 15.8 µM (inactive)
CCCCc1ccc(Nc2nc(S)c3ncn(COCCO)c3n2)cc1 | 56.9 µM (inactive) | 20.6 µM (inactive) | 69 µM (inactive) | 41.5 µM (inactive) | 34.4 µM (inactive) | 21.3 µM (inactive) | > 100 µM (inactive) | 36.8 µM (inactive) | > 100 µM (inactive) | 27.4 µM (inactive) | 88.7 µM (inactive) | 27.4 µM (inactive) | 45.4 µM (inactive) | 57.4 µM (inactive) | 35 µM (inactive) | > 100 µM (inactive) | > 100 µM (inactive) | 23.3 µM (inactive)
C=CCOC(=O)c1c(C)[n+]([O-])c2cc(Cl)c(Cl)cc2[n+]1[O-] | 34.4 µM (inactive) | 17.9 µM (inactive) |  | 18.7 µM (inactive) | 14.4 µM (inactive) | 12.4 µM (inactive) | 28.8 µM (inactive) | 12.9 µM (inactive) | 23.3 µM (inactive) | 13.7 µM (inactive) | 19.1 µM (inactive) | 15.5 µM (inactive) | 7.23 µM (inactive) | 19.8 µM (inactive) | 31.8 µM (inactive) | 19.2 µM (inactive) | 20.6 µM (inactive) | 28.5 µM (inactive)
Cc1ccnc2nc(-c3ccc(F)cc3)cc(O)c12 | > 100 µM (inactive) | 19.5 µM (inactive) | 33.7 µM (inactive) | 13.2 µM (inactive) | 75.7 µM (inactive) | 35.3 µM (inactive) | > 86.9 µM (inactive) | 60 µM (inactive) | > 70.5 µM (inactive) | 51.1 µM (inactive) | 64 µM (inactive) | 26.2 µM (inactive) | 77.6 µM (inactive) | 3.15 µM (inactive) | 38 µM (inactive) | 36.2 µM (inactive) | > 86.3 µM (inactive) | 92.7 µM (inactive)
N#C[BH2-][n+]1cn(C2CC(OP(=O)(O)OCC3OC(n4ccc(N)nc4=O)CC3O)C(CO)O2)c2nc(N)[nH]c(=O)c21 (configuration not stated) | > 100 µM (inactive) | > 100 µM (inactive) | > 100 µM (inactive) | > 100 µM (inactive) | > 100 µM (inactive) | > 100 µM (inactive) | > 100 µM (inactive) | > 100 µM (inactive) | > 100 µM (inactive) | > 100 µM (inactive) | > 100 µM (inactive) | > 100 µM (inactive) | > 100 µM (inactive) | > 100 µM (inactive) | > 100 µM (inactive) | > 100 µM (inactive) | > 100 µM (inactive) | > 100 µM (inactive)
c1ccc2c(c1)nc1n2CNCC1 | > 100 µM (inactive) | > 100 µM (inactive) | 34.7 µM (inactive) | > 100 µM (inactive) | > 100 µM (inactive) | 26.4 µM (inactive) | > 100 µM (inactive) | > 100 µM (inactive) | 79.3 µM (inactive) | > 100 µM (inactive) | > 100 µM (inactive) | 24.2 µM (inactive) | > 100 µM (inactive) | > 100 µM (inactive) | > 100 µM (inactive) | 49 µM (inactive) | > 100 µM (inactive) | 63.7 µM (inactive)
CCOC(=O)c1nc2ccccc2nc1Nc1ccc(F)cc1 | 16.2 µM (inactive) | > 100 µM (inactive) | > 100 µM (inactive) | 51.6 µM (inactive) | 20.8 µM (inactive) | > 100 µM (inactive) | 11.7 µM (inactive) | > 100 µM (inactive) | > 94.4 µM (inactive) | 15.7 µM (inactive) | 17.9 µM (inactive) | 79.4 µM (inactive) | > 100 µM (inactive) | > 100 µM (inactive) | 18.8 µM (inactive) | 39.5 µM (inactive) | 16.7 µM (inactive) | > 100 µM (inactive)
O=C1C2=Cc3ccccc3OC2(O)Oc2ccc(O)cc21 (configuration not stated) | 4.71 µM (inactive) | 40.8 µM (inactive) | > 100 µM (inactive) |  | 84.1 µM (inactive) | 23.1 µM (inactive) | > 100 µM (inactive) | > 100 µM (inactive) |  | 46.8 µM (inactive) | > 100 µM (inactive) | > 100 µM (inactive) |  | > 100 µM (inactive) | > 100 µM (inactive) | 48.4 µM (inactive) | 49.9 µM (inactive) | 91.2 µM (inactive)
Cc1ccc2nnc(NS(=O)(=O)c3cc(C)c(Cl)cc3S)n2n1 | > 100 µM (inactive) | > 100 µM (inactive) | > 100 µM (inactive) | > 100 µM (inactive) |  | > 100 µM (inactive) | > 100 µM (inactive) | > 100 µM (inactive) | 68.5 µM (inactive) | > 100 µM (inactive) | > 100 µM (inactive) | > 100 µM (inactive) | > 100 µM (inactive) | > 100 µM (inactive) | > 100 µM (inactive) | > 100 µM (inactive) | > 100 µM (inactive) | > 100 µM (inactive)
COC1/C=C/C(C)C(C(C)C(OC)C(C)CCC(=O)C(C)C(CCC(=O)O)OC)OC(=O)/C=C/C=C(\C)CC(OC)CC2=CC(=O)O[C@@H](C(C)C(OC)CC(OC)/C=C/C(C)C(OC)C1)[C@H]2O (some centres not stated) | 0.661 µM (active) | 0.125 µM (active) | 0.607 µM (active) | 0.43 µM (active) | 1.61 µM (inactive) | 0.242 µM (active) | 1.18 µM (inactive) | 0.353 µM (active) |  | 0.372 µM (active) | 0.695 µM (active) | 0.226 µM (active) | 0.971 µM (active) | 0.748 µM (active) | 0.249 µM (active) | 0.269 µM (active) | > 5 µM (inactive) | 0.592 µM (active)
